This note sets out measurements from patent publication US9237747B2, “Herbicidal compositions comprising 4-amino-3-chloro-5-fluoro-6-(4-chloro-2-fluoro-3-methoxyphenyl) pyridine-2-carboxylic acid or a derivative thereof and insecticides” (priority 2013, dated 2016).

This experiment concerns ECHCG. Description: In-water applied weed control, transplanted paddy rice (greenhouse). It counts as in vivo, Echinochloa crus-galli. The following applies: 8 g ae/ha alone. As to the method: Weed seeds or nutlets of the desired test plant species were planted in puddled soil (mud) prepared by mixing a shredded, non-sterilized mineral soil (50.5 percent silt, 25.5 percent clay, and 24 percent sand, with a pH of about 7.6 and an organic matter content of about 2.9 percent) and water at a 1:1 volumetric ratio. The prepared mud was dispensed in 365 mL aliquots into 16-ounce (oz.) non-perforated plastic pots with a surface area of 86.59 square centimeters (cm^2) leaving a headspace of 3 centimeters (cm) in each pot. Rice seeds were planted in Sun Gro MetroMix® 306 planting mixture, which typically has a pH of 6.0 to 6.8 and an organic matter content of about 30 percent, in plastic plug trays. Seedlings at the second or third leaf stage of growth were transplanted into 860 mL of mud contained in 32-oz. non-perforated plastic pots with a surface area of 86.59 cm^2 4 days prior to herbicide application. The paddy was created by filling the headspace of the pots with 2.5 to 3 cm of water. When required to ensure good germination and healthy plants, a fungicide treatment and/or other chemical or physical treatment was applied. The plants were grown for 4-22 days in a greenhouse with an approximate 14 h photoperiod which was maintained at about 29° C. during the day and about 26° C. during the night. Nutrients were added as Osmocote® (17:6:10, N:P:K+minor nutrients) at 2 grams (g) per 16-oz. pot and 4 g per 32-oz. pot. Water was added on a regular basis to maintain the paddy flood, and supplemental lighting was provided with overhead metal halide 1000-Watt lamps as necessary. The plants were employed for testing when they reached the first through fourth true leaf stage. […]
Treatment requirements for each compound or herbicidal component were calculated based upon the rates being tested, the concentration of active ingredient or acid equivalent in the formulation, an application volume of 2 mL per component per pot, and an application area of 86.59 cm^2 per pot.
For formulated compounds, a measured amount was placed in an individual 100 or 200 mL glass vial and was dissolved in a volume of 1.25% (v/v) AgriDex® crop oil concentrate to obtain application solutions. […]
The treated plants and control plants were placed in a greenhouse as described above and water was added as needed to maintain a paddy flood. After approximately 3 weeks the condition of the test plants as compared with that of the untreated plants was determined visually and scored on a scale of 0 to 100 percent where 0 corresponds to no injury or growth inhibition and 100 corresponds to complete kill. […]

As to `COc1c(Cl)ccc(-c2nc(C(=O)OCc3ccccc3)c(Cl)c(N)c2F)c1F` [Compound A Benzyl Ester], the “Visual Weed Control (%) - 21 DAA ECHCG Obs” value was determined as 40%.
